Measured values as given in paper PMC6095626, “Screening of the Pathogen Box for inhibitors with dual efficacy against Giardia lamblia and Cryptosporidium parvum” (PLoS Neglected Tropical Diseases, 2018).

Key:
[1] = test system: G. lamblia trophozoites (luciferase expressing, WBC6); assay: microbe, parasite or virus in culture; assay type: cell-based, Giardia lamblia; conditions: for Giardia (16 uM) Mean % inhibition: initial Pathogen Box screen, single concentration 16 µM, inhibition compared to DMSO wells
Procedure: Trophozoites were harvested by chilling cultures on ice for 30 minutes and plated by adding 150 μL per well at a concentration of 250,000 cells/mL. Metronidazole (Sigma, St. Louis, MO) was used as a control and was serially diluted 1:2 from 40 μM to 0.04 μM and 150 μL was added to the 150 μL of the G. lamblia trophozoites. Plates were covered in plastic low-evaporation lids, sealed in individual anaerobic BD GasPak Bio-Bags (Becton Dickinson, San Jose, CA) and incubated at 37 °C for 24 hours. […] A duplicate plate was concurrently set up and assayed using a MOXI Z Mini Automated Cell Counter Kit (Orflo, Ketchum, ID). Results obtained from the bioluminescence assay and the MOXI counter data were compared to evaluate their correlation to each another. Albendazole (Sigma, St. Louis, MO), an alternative giardiasis therapeutic, was assayed in concentrations from 4 μM to 0.004 μM with only the luciferase expressing G. lamblia cells. […]

[2] = test system: C. parvum (UGA1 Nluc expressing strain in HCT-8 cells); assay: microbe, parasite or virus in culture; assay type: cell-based, Cryptosporidium parvum; conditions: for Crypto (10 uM) Mean % inhibition: initial Pathogen Box screen, single concentration 10 µM, inhibition compared to DMSO wells; for C. parvum cell growth inhibition in the initial screen: 10 μM; for EC50: read-out: C. parvum EC50
Procedure: Growth inhibition and EC50 determination assays were performed using UGA1 Nluc expressing C. parvum strain in HCT-8 cells (ATCC^©, Manassas, VA) as previously described. HCT-8 cells were inoculated onto 96-well plates and allowed to grow for 48 hours to 90–100% confluence and then treated with single concentration (10 μM) or serially diluted compounds prior to oocyst infection. C. parvum oocysts were incubated for 10 minutes in 10% bleach at room temperature and then washed with DPBS. […] The cell monolayers were lysed for 1 hour before adding Nano-Glo® luciferase reagent (Promega, Madison, WI), and measuring relative luminescence units (RLU) in an EnVision Plate Reader (Perkin Elmer, Waltham, MA). Several parameters, including reproducibility and reliability, were previously evaluated to optimize this assay for low and high-throughput (HTP) screening of small molecule compounds against C. parvum. EC50 values were calculated using Prism 7 software (GraphPad Software, San Diego, CA).
C. parvum screening against the Pathogen Box compounds was performed as previously described starting at a concentration of 10 μM [23].

[3] = Nluc C. parvum in HCT-8 cells, 48 hours

## O=C(NC1CCN(c2ccnc3ccccc23)C1)c1cccc(C(F)(F)F)c1 (stereo not shown) [MMV023388]
[1]
  Giardia (16 uM) Mean % inhibition: 86%
[2]
  Crypto (10 uM) Mean % inhibition: X* (Mean or standard deviation are negative but not significantly different from the control to be a growth promoter)

## NS(=O)(=O)c1cccc(-c2ccc3ncc(N4CCOCC4)nc3c2)c1 [MMV023860]
[1]
  Giardia (16 uM) Mean % inhibition: 27%
[2]
  Crypto (10 uM) Mean % inhibition: 89%

## CC(C)(C)c1cc(C(=O)N2CCN(c3nccnc3C#N)CC2)n(Cc2ccccc2)n1 [MMV023949]
[1]
  Giardia (16 uM) Mean % inhibition: 36%
[2]
  Crypto (10 uM) Mean % inhibition: 55%

## O=C(Nc1cccc(-c2ccc(NCCCN3CCCC3)nc2)c1)c1ccccc1 [MMV023953]
[1]
  Giardia (16 uM) Mean % inhibition: 82%
[2]
  Crypto (10 uM) Mean % inhibition: X* (Mean or standard deviation are negative but not significantly different from the control to be a growth promoter)

## c1cncc(NCc2ccc(-c3cc4ccncc4cc3OC3CCNCC3)s2)c1 [MMV023969]
[1]
  Giardia (16 uM) Mean % inhibition: 11%
[2]
  Crypto (10 uM) Mean % inhibition: 25%

## COc1ccc(-c2cnc3ccc(N4CCCC4)nn23)cc1OC [MMV023985]
[1]
  Giardia (16 uM) Mean % inhibition: X* (Mean or standard deviation are negative but not significantly different from the control to be a growth promoter)
[2]
  Crypto (10 uM) Mean % inhibition: 93%

## O=C(Nc1ccccc1)c1ccc(-c2cc3ccncc3cc2OC2CCNCC2)s1 [MMV024035]
[1]
  Giardia (16 uM) Mean % inhibition: 66%
[2]
  Crypto (10 uM) Mean % inhibition: 27%

## NS(=O)(=O)c1cncc(-c2ccc3nccc(-c4cn[nH]c4)c3n2)c1 [MMV024101]
[1]
  Giardia (16 uM) Mean % inhibition: 14%
[2]
  Crypto (10 uM) Mean % inhibition: X* (Mean or standard deviation are negative but not significantly different from the control to be a growth promoter)

## Cc1ccc(S(=O)(=O)n2cc(-c3ccnc(N)c3)c3cc(Br)cnc32)cc1 [MMV024114]
[1]
  Giardia (16 uM) Mean % inhibition: 78%
[1]; luciferase expressing G. lamblia trophozoites, 24 hours, D-luciferin bioluminescence read-out
  G. lamblia EC50: not potent
[2]
  Crypto (10 uM) Mean % inhibition: 86%

## CN(C)CCNC(=O)N1CCCN(c2ncnc3cc(-c4ccccc4)sc23)CC1 [MMV024195]
[1]
  Giardia (16 uM) Mean % inhibition: 31%
[2]
  Crypto (10 uM) Mean % inhibition: 15%

## Cc1ccc2[nH]c(C3CCCNC3)c(-c3ccncc3)c2c1 (stereo not shown) [MMV024311]
[1]
  Giardia (16 uM) Mean % inhibition: 22%
[2]
  Crypto (10 uM) Mean % inhibition: 56%

## O=C(NC1CC1)c1ccc(N2CCC(Cc3ccccc3)CC2)nc1 [MMV024397]
[1]
  Giardia (16 uM) Mean % inhibition: X* (Mean or standard deviation are negative but not significantly different from the control to be a growth promoter)
[2]
  Crypto (10 uM) Mean % inhibition: X* (Mean or standard deviation are negative but not significantly different from the control to be a growth promoter)

## O=C(Nc1cccc(Cl)c1)c1cnc(N2CCN(c3ccncc3)CC2)c(Cl)c1 [MMV024406]
[1]
  Giardia (16 uM) Mean % inhibition: 91%
[2]; [3]
  C. parvum EC50: not potent
[2]
  Crypto (10 uM) Mean % inhibition: 91%

## CN(C(=O)c1cc2c(-c3cncnc3)cccc2[nH]1)c1ccccc1 [MMV024443]
[1]
  Giardia (16 uM) Mean % inhibition: X* (Mean or standard deviation are negative but not significantly different from the control to be a growth promoter)
[2]
  Crypto (10 uM) Mean % inhibition: 87%

## Cc1cccc(C(=O)Nc2ccnc(N(C)C3CCN(CC(C)C)CC3)c2)c1 [MMV024829]
[1]
  Giardia (16 uM) Mean % inhibition: 89%
[2]
  Crypto (10 uM) Mean % inhibition: X* (Mean or standard deviation are negative but not significantly different from the control to be a growth promoter)

## O=C(Nc1ccc(N2CCNCC2)nc1)c1oc(-c2ccccc2)nc1C(F)(F)F [MMV024937]
[1]
  Giardia (16 uM) Mean % inhibition: 7%
[2]
  Crypto (10 uM) Mean % inhibition: X* (Mean or standard deviation are negative but not significantly different from the control to be a growth promoter)

## CS(=O)(=O)c1cccc(-c2cnc3[nH]cc(-c4ccc(CCC(=O)O)cc4)c3c2)c1 [MMV026020]
[1]
  Giardia (16 uM) Mean % inhibition: 19%
[2]
  Crypto (10 uM) Mean % inhibition: X* (Mean or standard deviation are negative but not significantly different from the control to be a growth promoter)

## Nc1nccc2ccc(Oc3ccncc3)cc12 [MMV026313]
[1]
  Giardia (16 uM) Mean % inhibition: X* (Mean or standard deviation are negative but not significantly different from the control to be a growth promoter)
[2]
  Crypto (10 uM) Mean % inhibition: X* (Mean or standard deviation are negative but not significantly different from the control to be a growth promoter)

## CCn1ncc2c(NC3CCOCC3)c(CNC(=O)c3ccnn3C)c(C)nc21 [MMV026356]
[1]
  Giardia (16 uM) Mean % inhibition: 68%
[2]
  Crypto (10 uM) Mean % inhibition: 31%

## OCc1ccc(-c2cncc(Nc3cccc(Cl)c3)c2)cc1 [MMV026468]
[1]
  Giardia (16 uM) Mean % inhibition: 39%
[2]
  Crypto (10 uM) Mean % inhibition: X* (Mean or standard deviation are negative but not significantly different from the control to be a growth promoter)

## O=C(NCCc1ccccc1)c1cc(-c2cccnc2)cnc1NCC1CC1 [MMV026490]
[1]
  Giardia (16 uM) Mean % inhibition: 12%
[2]
  Crypto (10 uM) Mean % inhibition: X* (Mean or standard deviation are negative but not significantly different from the control to be a growth promoter)

## CC(C)(C)CN1C(=O)C(c2ccccc2)(c2ccccc2)N=C1N [MMV026550]
[1]
  Giardia (16 uM) Mean % inhibition: 35%
[2]
  Crypto (10 uM) Mean % inhibition: X* (Mean or standard deviation are negative but not significantly different from the control to be a growth promoter)

## CC(C)(CN)c1nc(-c2ccc(Cl)c(O)c2)c(-c2ccnc(N)n2)[nH]1 [MMV030734]
[1]
  Giardia (16 uM) Mean % inhibition: 35%
[2]
  Crypto (10 uM) Mean % inhibition: X* (Mean or standard deviation are negative but not significantly different from the control to be a growth promoter)

## CNC(=O)C1Cc2c([nH]c3cc(Cl)ccc23)C2(CCN(CCc3ccccc3)CC2)N1 (stereo not shown) [MMV031011]
[1]
  Giardia (16 uM) Mean % inhibition: 81%
[2]
  Crypto (10 uM) Mean % inhibition: 72%

## FC(F)(F)c1cccc(-c2nc3c(NCc4ccncc4)nccc3[nH]2)c1 [MMV032967]
[1]
  Giardia (16 uM) Mean % inhibition: 26%
[2]
  Crypto (10 uM) Mean % inhibition: 27%

## O=C1COCc2ccc(Br)cc2N1Cc1ccc(C(F)(F)F)cc1 [MMV032995]
[1]
  Giardia (16 uM) Mean % inhibition: 38%
[2]
  Crypto (10 uM) Mean % inhibition: 41%

## c1ccc(Oc2ccc(-c3cc(N4CCOCC4)n[nH]3)cc2)cc1 [MMV045105]
[1]
  Giardia (16 uM) Mean % inhibition: 16%
[2]
  Crypto (10 uM) Mean % inhibition: 19%

## COc1cc(C(F)(F)F)nc2ccc(C)c(N)c12 [MMV047015]
[1]
  Giardia (16 uM) Mean % inhibition: 65%
[2]
  Crypto (10 uM) Mean % inhibition: 1.83%

## N#Cc1ccc(-c2ccc(OCC(N)=O)cc2)cc1 [MMV053220]
[1]
  Giardia (16 uM) Mean % inhibition: 74%
[2]
  Crypto (10 uM) Mean % inhibition: 52%

## CC(=O)N1CCc2cc3nc(C)cc(C)c3cc21 [MMV054312]
[1]
  Giardia (16 uM) Mean % inhibition: 45%
[2]
  Crypto (10 uM) Mean % inhibition: 59%

## Cc1cc(C)nc(-n2nc(C)cc2Nc2ccccc2)n1 [MMV062221]
[1]
  Giardia (16 uM) Mean % inhibition: 35%
[2]
  Crypto (10 uM) Mean % inhibition: 50%

## Cc1nn(Cc2ccccc2)c(Cl)c1C(=O)NC1CCCCCC1 [MMV063404]
[1]
  Giardia (16 uM) Mean % inhibition: 55%
[2]
  Crypto (10 uM) Mean % inhibition: 75%

## FC(F)(F)c1nnc2ccc(Cl)nn12 [MMV069458]
[1]
  Giardia (16 uM) Mean % inhibition: X* (Mean or standard deviation are negative but not significantly different from the control to be a growth promoter)
[2]
  Crypto (10 uM) Mean % inhibition: 65%

## O=C1N(Cc2cc3ccccc3s2)CC2CN(Cc3ccccc3)CCN12 (stereo not shown) [MMV084603]
[1]
  Giardia (16 uM) Mean % inhibition: 62%
[2]
  Crypto (10 uM) Mean % inhibition: 43%

## O=C(Nc1cnc2ccccc2c1)c1cccc(-n2cnnn2)c1 [MMV084864]
[1]
  Giardia (16 uM) Mean % inhibition: 63%
[2]
  Crypto (10 uM) Mean % inhibition: 34%

## COc1cncc(-c2cncc(N3CCN(c4ccncc4)CC3)n2)c1 [MMV085071]
[1]
  Giardia (16 uM) Mean % inhibition: 19%
[2]
  Crypto (10 uM) Mean % inhibition: 47%

## O=C(C(Cc1c[nH]c2ccccc12)NS(=O)(=O)c1ccc(Cl)cc1)N1CCCCC1 (stereo not shown) [MMV085210]
[1]
  Giardia (16 uM) Mean % inhibition: X* (Mean or standard deviation are negative but not significantly different from the control to be a growth promoter)
[2]
  Crypto (10 uM) Mean % inhibition: X* (Mean or standard deviation are negative but not significantly different from the control to be a growth promoter)

## CCCNC(=O)N1CCC2(CC1)CC(=O)c1cc(C)ccc1O2 [MMV085230]
[1]
  Giardia (16 uM) Mean % inhibition: 63%
[2]
  Crypto (10 uM) Mean % inhibition: 62%

## N#Cc1ccc(-c2cnc(N)c(-c3ccc(C(N)=O)cc3)n2)cc1 [MMV085499]
[1]
  Giardia (16 uM) Mean % inhibition: 61%
[2]; 48 hours
  C. parvum cell growth inhibition in the initial screen: ≥ 95%
[2]; [3]
  EC50: 1930 nM
[2]
  Crypto (10 uM) Mean % inhibition: 95%

## CCOC(=O)NC(=O)c1ccsc1NC(=O)c1nc2ccccc2s1 [MMV090930]
[1]
  Giardia (16 uM) Mean % inhibition: 18%
[2]
  Crypto (10 uM) Mean % inhibition: 59%

## O=C(Nc1nnc(-c2ccc(Cl)cc2)o1)c1cccc(C(F)(F)F)c1 [MMV102872]
[1]
  Giardia (16 uM) Mean % inhibition: 35%
[2]; 48 hours
  C. parvum cell growth inhibition in the initial screen: ≥ 95%
[2]; [3]
  EC50: 140 nM
[2]
  Crypto (10 uM) Mean % inhibition: 95%
